Key:
Format in all cases: functional
Conditions in all cases: read-out: GI
HCC 2998 = assay: Anticancer activity against human HCC 2998 cells assessed as cell growth inhibition at 10 uM incubated for 48 hrs by SRB assay relative to control
SNB-75 = assay: Anticancer activity against human SNB-75 cells assessed as cell growth inhibition at 10 uM incubated for 48 hrs by SRB assay relative to control
MOLT-4 = assay: Anticancer activity against human MOLT-4 cells assessed as cell growth inhibition at 10 uM incubated for 48 hrs by SRB assay relative to control
SK-MEL-28 = assay: Anticancer activity against human SK-MEL-28 cells assessed as cell growth inhibition at 10 uM incubated for 48 hrs by SRB assay relative to control
MDA-MB-435 = assay: Anticancer activity against human MDA-MB-435 cells assessed as cell growth inhibition at 10 uM incubated for 48 hrs by SRB assay relative to control
SF-268 = assay: Anticancer activity against human SF-268 cells assessed as cell growth inhibition at 10 uM incubated for 48 hrs by SRB assay relative to control
EKVX = assay: Anticancer activity against human EKVX cells assessed as cell growth inhibition at 10 uM incubated for 48 hrs by SRB assay relative to control
SK-OV-3 = assay: Anticancer activity against human SK-OV-3 cells assessed as cell growth inhibition at 10 uM incubated for 48 hrs by SRB assay relative to control
HOP-62 = assay: Anticancer activity against human HOP-62 cells assessed as cell growth inhibition at 10 uM incubated for 48 hrs by SRB assay relative to control
U-251 = assay: Anticancer activity against human U-251 cells assessed as cell growth inhibition at 10 uM incubated for 48 hrs by SRB assay relative to control
UACC-62 = assay: Anticancer activity against human UACC-62 cells assessed as cell growth inhibition at 10 uM incubated for 48 hrs by SRB assay relative to control
NCI-H522 = assay: Anticancer activity against human NCI-H522 cells assessed as cell growth inhibition at 10 uM incubated for 48 hrs by SRB assay relative to control
SR = assay: Anticancer activity against human SR cells assessed as cell growth inhibition at 10 uM incubated for 48 hrs by SRB assay relative to control
A498 = assay: Anticancer activity against human A498 cells assessed as cell growth inhibition at 10 uM incubated for 48 hrs by SRB assay relative to control
OVCAR-3 = assay: Anticancer activity against human OVCAR-3 cells assessed as cell growth inhibition at 10 uM incubated for 48 hrs by SRB assay relative to control
RPMI-8226 = assay: Anticancer activity against human RPMI-8226 cells assessed as cell growth inhibition at 10 uM incubated for 48 hrs by SRB assay relative to control
ACHN = assay: Anticancer activity against human ACHN cells assessed as cell growth inhibition at 10 uM incubated for 48 hrs by SRB assay relative to control
OVCAR-5 = assay: Anticancer activity against human OVCAR-5 cells assessed as cell growth inhibition at 10 uM incubated for 48 hrs by SRB assay relative to control
LOX IMVI = assay: Anticancer activity against human LOX IMVI cells assessed as cell growth inhibition at 10 uM incubated for 48 hrs by SRB assay relative to control
K562 = assay: Anticancer activity against human K562 cells assessed as cell growth inhibition at 10 uM incubated for 48 hrs by SRB assay relative to control
NCI-H23 = assay: Anticancer activity against human NCI-H23 cells assessed as cell growth inhibition at 10 uM incubated for 48 hrs by SRB assay relative to control
NCI-H322M = assay: Anticancer activity against human NCI-H322M cells assessed as cell growth inhibition at 10 uM incubated for 48 hrs by SRB assay relative to control
KM12 = assay: Anticancer activity against human KM12 cells assessed as cell growth inhibition at 10 uM incubated for 48 hrs by SRB assay relative to control
HT-29 = assay: Anticancer activity against human HT-29 cells assessed as cell growth inhibition at 10 uM incubated for 48 hrs by SRB assay relative to control
NCI-H460 = assay: Anticancer activity against human NCI-H460 cells assessed as cell growth inhibition at 10 uM incubated for 48 hrs by SRB assay relative to control
PC-3 = assay: Anticancer activity against human PC-3 cells assessed as cell growth inhibition at 10 uM incubated for 48 hrs by SRB assay relative to control
NCI-H226 = assay: Anticancer activity against human NCI-H226 cells assessed as cell growth inhibition at 10 uM incubated for 48 hrs by SRB assay relative to control
HCT-15 = assay: Anticancer activity against human HCT-15 cells assessed as cell growth inhibition at 10 uM incubated for 48 hrs by SRB assay relative to control
T47D = assay: Anticancer activity against human T47D cells assessed as cell growth inhibition at 10 uM incubated for 48 hrs by SRB assay relative to control
MDA-MB-468 = assay: Anticancer activity against human MDA-MB-468 cells assessed as cell growth inhibition at 10 uM incubated for 48 hrs by SRB assay relative to control
COLO 205 = assay: Anticancer activity against human COLO 205 cells assessed as cell growth inhibition at 10 uM incubated for 48 hrs by SRB assay relative to control
SK-MEL-2 = assay: Anticancer activity against human SK-MEL-2 cells assessed as cell growth inhibition at 10 uM incubated for 48 hrs by SRB assay relative to control
DU-145 = assay: Anticancer activity against human DU-145 cells assessed as cell growth inhibition at 10 uM incubated for 48 hrs by SRB assay relative to control
BT-549 = assay: Anticancer activity against human BT-549 cells assessed as cell growth inhibition at 10 uM incubated for 48 hrs by SRB assay relative to control
SW-620 = assay: Anticancer activity against human SW-620 cells assessed as cell growth inhibition at 10 uM incubated for 48 hrs by SRB assay relative to control
NCI/ADR-RES = assay: Anticancer activity against human NCI/ADR-RES cells assessed as cell growth inhibition at 10 uM incubated for 48 hrs by SRB assay relative to control
RXF 393 = assay: Anticancer activity against human RXF 393 cells assessed as cell growth inhibition at 10 uM incubated for 48 hrs by SRB assay relative to control
SF-539 = assay: Anticancer activity against human SF-539 cells assessed as cell growth inhibition at 10 uM incubated for 48 hrs by SRB assay relative to control
OVCAR-8 = assay: Anticancer activity against human OVCAR-8 cells assessed as cell growth inhibition at 10 uM incubated for 48 hrs by SRB assay relative to control
CCRF-CEM = assay: Anticancer activity against human CCRF-CEM cells assessed as cell growth inhibition at 10 uM incubated for 48 hrs by SRB assay relative to control

| Compound | inhibition of growth at 10 µM (HCC 2998) | inhibition of growth at 10 µM (SNB-75) | inhibition of growth at 10 µM (MOLT-4) | inhibition of growth at 10 µM (SK-MEL-28) | inhibition of growth at 10 µM (MDA-MB-435) | inhibition of growth at 10 µM (SF-268) | inhibition of growth at 10 µM (EKVX) | inhibition of growth at 10 µM (SK-OV-3) | inhibition of growth at 10 µM (HOP-62) | inhibition of growth at 10 µM (U-251) | inhibition of growth at 10 µM (UACC-62) | inhibition of growth at 10 µM (NCI-H522) | inhibition of growth at 10 µM (SR) | inhibition of growth at 10 µM (OVCAR-3) | inhibition of growth at 10 µM (RPMI-8226) | inhibition of growth at 10 µM (ACHN) | inhibition of growth at 10 µM (OVCAR-5) | inhibition of growth at 10 µM (LOX IMVI) | inhibition of growth at 10 µM (K562) | inhibition of growth at 10 µM (NCI-H23) | other results |
| --- | --- | --- | --- | --- | --- | --- | --- | --- | --- | --- | --- | --- | --- | --- | --- | --- | --- | --- | --- | --- | --- |
| NS(=O)(=O)c1ccc(Nc2nc(N/N=C/c3ccc(Cl)cc3)nc(Nc3ccccc3)n2)cc1 | 23% | < 10% | 98% | 24% | 42% | 26% | 23% | < 10% | 16% | 45% | 25% | 20% | 81% | 29% | 45% | < 10% | 16% | 39% | 40% | 12% | inhibition of growth at 10 µM (A498): 23%; inhibition of growth at 10 µM (NCI-H322M): < 10%; inhibition of growth at 10 µM (KM12): 36%; inhibition of growth at 10 µM (HT-29): 65%; inhibition of growth at 10 µM (NCI-H460): 27%; inhibition of growth at 10 µM (PC-3): 48%; inhibition of growth at 10 µM (NCI-H226): 18%; inhibition of growth at 10 µM (HCT-15): 23%; inhibition of growth at 10 µM (T47D): 55%; inhibition of growth at 10 µM (MDA-MB-468): 33%; inhibition of growth at 10 µM (COLO 205): 26%; inhibition of growth at 10 µM (SK-MEL-2): 18%; inhibition of growth at 10 µM (DU-145): 27%; inhibition of growth at 10 µM (BT-549): 25%; inhibition of growth at 10 µM (SW-620): < 10%; inhibition of growth at 10 µM (NCI/ADR-RES): < 10%; inhibition of growth at 10 µM (RXF 393): 111%; inhibition of growth at 10 µM (SF-539): 46%; inhibition of growth at 10 µM (OVCAR-8): 32%; inhibition of growth at 10 µM (CCRF-CEM): 80% |
| NS(=O)(=O)c1ccc(Nc2nc(N/N=C/c3ccc(F)cc3)nc(Nc3ccccc3)n2)cc1 | 44% | < 10% | 78% | 36% | 46% | 58% | 37% | 28% | 82% | 88% | 39% | 84% | 42% | 69% | 49% | 19% | 24% | 39% | 45% | 45% | inhibition of growth at 10 µM (NCI-H322M): 41%; inhibition of growth at 10 µM (KM12): 69%; inhibition of growth at 10 µM (HT-29): 95%; inhibition of growth at 10 µM (NCI-H460): 34%; inhibition of growth at 10 µM (PC-3): 60%; inhibition of growth at 10 µM (NCI-H226): 49%; inhibition of growth at 10 µM (HCT-15): 20%; inhibition of growth at 10 µM (T47D): 79%; inhibition of growth at 10 µM (MDA-MB-468): 45%; inhibition of growth at 10 µM (COLO 205): 79%; inhibition of growth at 10 µM (SK-MEL-2): 109%; inhibition of growth at 10 µM (DU-145): 68%; inhibition of growth at 10 µM (BT-549): 32%; inhibition of growth at 10 µM (SW-620): 24%; inhibition of growth at 10 µM (NCI/ADR-RES): < 10%; inhibition of growth at 10 µM (RXF 393): 42%; inhibition of growth at 10 µM (SF-539): 37%; inhibition of growth at 10 µM (OVCAR-8): 70%; inhibition of growth at 10 µM (CCRF-CEM): 80% |
| NS(=O)(=O)c1ccc(Nc2nc(N/N=C/c3ccc(C(F)(F)F)cc3)nc(Nc3ccccc3)n2)cc1 | 46% | 58% | 90% | 72% | 80% | 49% | 46% | 44% | 61% | 81% | 85% | 62% | 92% | 88% | 105% | 60% | 32% | 90% | 82% | 47% | inhibition of growth at 10 µM (A498): 60%; inhibition of growth at 10 µM (NCI-H322M): 47%; inhibition of growth at 10 µM (KM12): 78%; inhibition of growth at 10 µM (HT-29): 88%; inhibition of growth at 10 µM (NCI-H460): 85%; inhibition of growth at 10 µM (PC-3): 85%; inhibition of growth at 10 µM (NCI-H226): 63%; inhibition of growth at 10 µM (HCT-15): 68%; inhibition of growth at 10 µM (T47D): 68%; inhibition of growth at 10 µM (MDA-MB-468): 65%; inhibition of growth at 10 µM (COLO 205): 70%; inhibition of growth at 10 µM (SK-MEL-2): 71%; inhibition of growth at 10 µM (DU-145): 60%; inhibition of growth at 10 µM (BT-549): 51%; inhibition of growth at 10 µM (SW-620): 45%; inhibition of growth at 10 µM (NCI/ADR-RES): 12%; inhibition of growth at 10 µM (RXF 393): 139%; inhibition of growth at 10 µM (SF-539): 76%; inhibition of growth at 10 µM (OVCAR-8): 67%; inhibition of growth at 10 µM (CCRF-CEM): 88% |
| NS(=O)(=O)c1ccc(Nc2nc(N/N=C/c3ccc4c(c3)OCO4)nc(Nc3ccccc3)n2)cc1 | 76% | 46% | 88% | 32% | 40% | 57% | 26% | 34% | 70% | 44% | 21% | 39% | 79% | 51% | 45% | 42% | < 10% | 73% | 66% | 74% | inhibition of growth at 10 µM (A498): 48%; inhibition of growth at 10 µM (NCI-H322M): 38%; inhibition of growth at 10 µM (KM12): 29%; inhibition of growth at 10 µM (HT-29): 59%; inhibition of growth at 10 µM (NCI-H460): 97%; inhibition of growth at 10 µM (PC-3): 40%; inhibition of growth at 10 µM (NCI-H226): 34%; inhibition of growth at 10 µM (HCT-15): 17%; inhibition of growth at 10 µM (T47D): 45%; inhibition of growth at 10 µM (MDA-MB-468): 53%; inhibition of growth at 10 µM (COLO 205): 50%; inhibition of growth at 10 µM (SK-MEL-2): 44%; inhibition of growth at 10 µM (DU-145): 58%; inhibition of growth at 10 µM (BT-549): 23%; inhibition of growth at 10 µM (SW-620): 50%; inhibition of growth at 10 µM (NCI/ADR-RES): < 10%; inhibition of growth at 10 µM (RXF 393): 77%; inhibition of growth at 10 µM (SF-539): 83%; inhibition of growth at 10 µM (OVCAR-8): 50%; inhibition of growth at 10 µM (CCRF-CEM): 83% |

From ChEMBL document CHEMBL5154747, “Discovery of new carbonic anhydrase IX inhibitors as anticancer agents by toning the hydrophobic and hydrophilic rims of the active site to encounter the dual-tail approach” (Eur J Med Chem, 2022)
